Laboratory results taken from US10174037B2, “Dihydropyrazolopyrimidinone compounds as PDE2 inhibitors” (Merck Sharp & Dohme Corp., priority 2015, dated 2019).

How the values were obtained:
[1] = target: Rhesus PDE2A3 (Macaca mulatta, UniProt B3VTJ2); test: PDE2 fluorescence polarization (IMAP FP) assay, rhesus PDE2A3; assay type: biochemical, rhesus macaque; settings: Lab B, read-out: Rhesus PDE2 Ki (nM) Lab B
[2] = target: human PDE2A1 (Homo sapiens (Human), UniProt O00408); test: PDE selectivity IMAP FP assay, human PDE2A1; assay type: biochemical; settings: Human PDE2; Lab B; read-out: Human PDE2 Ki (nM) Lab B
Summary of the method: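 IMAP fluorescence polarization assay; PDE2 substrate 50 nM FAM-cAMP containing 1000 nM cGMP, enzyme diluted for 20% substrate conversion, in 10 mM Tris HCl pH 7.2, 10 mM MgCl2, 1 mM DTT. Reaction 60 min at room temperature, stopped with IMAP binding solution; polarization read after 1 h. Ki reported.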

Sequence of Rhesus PDE2A3 (B3VTJ2 1-941): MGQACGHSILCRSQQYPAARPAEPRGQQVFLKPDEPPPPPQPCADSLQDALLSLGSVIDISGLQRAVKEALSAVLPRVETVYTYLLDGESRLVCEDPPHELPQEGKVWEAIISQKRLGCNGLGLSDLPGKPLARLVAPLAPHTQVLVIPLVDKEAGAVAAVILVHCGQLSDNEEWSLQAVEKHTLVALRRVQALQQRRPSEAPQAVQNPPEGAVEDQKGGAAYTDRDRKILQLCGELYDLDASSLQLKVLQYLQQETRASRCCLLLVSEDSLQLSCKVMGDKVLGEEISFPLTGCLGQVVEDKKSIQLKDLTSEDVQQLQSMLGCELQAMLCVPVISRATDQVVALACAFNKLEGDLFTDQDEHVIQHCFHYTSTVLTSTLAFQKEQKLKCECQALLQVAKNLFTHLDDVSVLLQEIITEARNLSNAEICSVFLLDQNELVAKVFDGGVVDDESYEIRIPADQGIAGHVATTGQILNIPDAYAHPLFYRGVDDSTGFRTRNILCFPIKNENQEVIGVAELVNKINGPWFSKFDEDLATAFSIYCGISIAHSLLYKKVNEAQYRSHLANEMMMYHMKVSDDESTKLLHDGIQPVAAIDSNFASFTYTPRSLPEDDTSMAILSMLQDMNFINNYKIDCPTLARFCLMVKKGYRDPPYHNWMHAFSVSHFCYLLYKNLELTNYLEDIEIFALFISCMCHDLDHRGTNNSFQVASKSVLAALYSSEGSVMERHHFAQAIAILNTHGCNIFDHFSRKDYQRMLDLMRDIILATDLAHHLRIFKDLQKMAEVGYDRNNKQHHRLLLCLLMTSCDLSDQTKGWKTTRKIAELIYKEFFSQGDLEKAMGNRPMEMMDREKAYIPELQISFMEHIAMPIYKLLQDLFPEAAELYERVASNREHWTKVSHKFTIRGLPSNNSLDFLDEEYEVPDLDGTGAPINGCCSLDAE
Sequence of human PDE2A1 (O00408 other isoform, or with tags, fused parts or gaps): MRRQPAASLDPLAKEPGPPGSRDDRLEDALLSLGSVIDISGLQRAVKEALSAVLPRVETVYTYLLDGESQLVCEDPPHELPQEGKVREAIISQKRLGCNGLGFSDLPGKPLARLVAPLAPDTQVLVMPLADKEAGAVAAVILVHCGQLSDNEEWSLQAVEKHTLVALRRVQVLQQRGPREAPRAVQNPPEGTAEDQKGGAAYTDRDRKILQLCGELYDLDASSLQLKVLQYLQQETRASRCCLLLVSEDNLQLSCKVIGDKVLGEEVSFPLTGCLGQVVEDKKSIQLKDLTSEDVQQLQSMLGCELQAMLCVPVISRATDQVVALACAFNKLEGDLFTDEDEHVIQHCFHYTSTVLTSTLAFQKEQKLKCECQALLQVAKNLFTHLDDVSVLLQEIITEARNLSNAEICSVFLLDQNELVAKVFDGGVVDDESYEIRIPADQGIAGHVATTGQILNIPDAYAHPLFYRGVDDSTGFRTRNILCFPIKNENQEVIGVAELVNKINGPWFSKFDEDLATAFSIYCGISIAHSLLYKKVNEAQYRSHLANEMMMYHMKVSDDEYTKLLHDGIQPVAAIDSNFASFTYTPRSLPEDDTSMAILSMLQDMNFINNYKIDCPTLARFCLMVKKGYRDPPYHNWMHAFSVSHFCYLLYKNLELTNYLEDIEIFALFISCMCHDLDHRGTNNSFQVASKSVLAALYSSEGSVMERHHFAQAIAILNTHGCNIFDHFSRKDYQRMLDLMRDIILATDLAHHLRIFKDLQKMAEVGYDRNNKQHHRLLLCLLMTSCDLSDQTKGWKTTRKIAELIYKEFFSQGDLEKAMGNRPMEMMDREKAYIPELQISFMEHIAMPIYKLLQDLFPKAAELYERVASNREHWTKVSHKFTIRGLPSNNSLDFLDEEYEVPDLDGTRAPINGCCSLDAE

SMILES	Ki [1] [nM]	Ki [2] [nM]
CC(C)c1ccc(C(C(C)C)n2nc(CF)c3c(=O)[nH]c(N(C)C)nc32)cc1 (single isomer, unassigned) [Example 176, (R)- or (S)-6-(Dimethylamino)-3-(fluoromethyl)-1-(1-(4-isopropylphenyl)-2-methylpropyl)-1H-pyrazolo[3,4-d]pyrimidin-4(5H)-one]	0.28	0.23
CN(C)c1nc2c(c(CF)nn2C(c2ccc(C(F)(F)F)cc2)C2CC2)c(=O)[nH]1 (single isomer, unassigned) [Example 179, (S)- or (R)-1-(Cyclopropyl(4-(trifluoromethyl)phenyl)methyl)-6-(dimethylamino)-3-(fluoromethyl)-1H-pyrazolo[3,4-d]pyrimidin-4(5H)-one]	0.072	0.072
CN(C)c1nc2c(c(CF)nn2C(c2ccc(C(F)(F)F)c(F)c2)C2CC2)c(=O)[nH]1 (single isomer, unassigned) [Example 181, (S)- or (R)-1-(Cyclopropyl(3-fluoro-4-(trifluoromethyl)phenyl)methyl)-6-(dimethylamino)-3-(fluoromethyl)-1H-pyrazolo[3,4-d]pyrimidin-4(5H)-one]	0.11	0.058
CC(C)c1ccc(C(C2CC2)n2nc(CF)c3c(=O)[nH]c(N(C)C)nc32)cc1 (single isomer, unassigned) [Example 183, (R)- or (S)-1-(Cyclopropyl(4-isopropylphenyl)methyl)-6-(dimethylamino)-3-(fluoromethyl)-1H-pyrazolo[3,4-d]pyrimidin-4(5H)-one]	0.082	0.064
CC(C)C(c1ccc(OC(F)F)cc1)n1nc(CF)c2c(=O)[nH]c(N(C)C)nc21 (single isomer, unassigned) [Example 184, (R)- or (S)-1-(1-(4-(Difluoromethoxy)phenyl)-2-methylpropyl)-6-(dimethylamino)-3-(fluoromethyl)-1H-pyrazolo[3,4-d]pyrimidin-4(5H)-one]	0.24	0.19
CC(C)C(c1ccc(OC(F)F)cc1)n1nc(CF)c2c(=O)[nH]c(N(C)C)nc21 (single isomer, unassigned) [Example 185, (S)- or (R)-1-(1-(4-(Difluoromethoxy)phenyl)-2-methylpropyl)-6-(dimethylamino)-3-(fluoromethyl)-1H-pyrazolo[3,4-d]pyrimidin-4(5H)-one]	0.16	0.12
CN(C)c1nc2c(c(CF)nn2C(c2ccc(OC(F)F)c(F)c2)C2CC2)c(=O)[nH]1 (single isomer, unassigned) [Example 188, (R)- or (S)-1-(Cyclopropyl(4-(difluoromethoxy)-3-fluorophenyl)methyl)-6-(dimethylamino)-3-(fluoromethyl)-1H-pyrazolo[3,4-d]pyrimidin-4(5H)-one]	0.41	0.35
CN(C)c1nc2c(c(CF)nn2C(c2ccc(OC(F)F)c(F)c2)C2CC2)c(=O)[nH]1 (single isomer, unassigned) [Example 189, (S)- or (R)-1-(Cyclopropyl(4-(difluoromethoxy)-3-fluorophenyl)methyl)-6-(dimethylamino)-3-(fluoromethyl)-1H-pyrazolo[3,4-d]pyrimidin-4(5H)-one]	0.62	0.35
CC(c1ccc(C(C)(F)F)cc1)n1nc(CF)c2c(=O)[nH]c(N(C)C)nc21 (single isomer, unassigned) [Example 195, (S)- or (R)-1-(1-(4-(1,1-Difluoroethyl)phenyl)ethyl)-6-(dimethylamino)-3-(fluoromethyl)-1H-pyrazolo[3,4-d]pyrimidin-4(5H)-one]	0.14	0.17
CC(c1ccc(C(F)F)c(F)c1)n1nc(CF)c2c(=O)[nH]c(N(C)C)nc21 (single isomer, unassigned) [Example 196, (R)- or (S)-1-(1-(4-(Difluoromethyl)-3-fluorophenyl)ethyl)-6-(dimethylamino)-3-(fluoromethyl)-1H-pyrazolo[3,4-d]pyrimidin-4(5H)-one]	0.59	0.31
CCC(c1ccc(C(F)(F)F)cc1F)n1nc(CF)c2c(=O)[nH]c(N(C)C)nc21 (single isomer, unassigned) [Example 198, (R)- or (S)-6-(Dimethylamino)-1-(1-(2-fluoro-4-(trifluoromethyl)phenyl)propyl)-3-(fluoromethyl)-1H-pyrazolo[3,4-d]pyrimidin-4(5H)-one]	0.068	0.048
CC(C)C(c1ccc(C(C)(F)F)cc1)n1nc(CF)c2c(=O)[nH]c(N(C)C)nc21 (single isomer, unassigned) [Example 206, (R)- or (S)-l-(1-(4-(1,1-Difluoroethyl)phenyl)-2-methylpropyl)-6-(dimethylamino)-3-(fluoromethyl)-1H-pyrazolo[3,4-d]pyrimidin-4(5H)-one]	0.51	0.37
CC(C)C(c1ccc(C(C)(F)F)cc1)n1nc(CF)c2c(=O)[nH]c(N(C)C)nc21 (single isomer, unassigned) [Example 207, (S)- or (R)-1-(1-(4-(1,1-Difluoroethyl)phenyl)-2-methylpropyl)-6-(dimethylamino)-3-(fluoromethyl)-1H-pyrazolo[3,4-d]pyrimidin-4(5H)-one]	0.043	0.03

Continued, values first:

Ki [1] [nM]	Ki [2] [nM]	SMILES
0.096	0.063	CCC(c1ccc(C(F)(F)F)cc1)n1nc(CF)c2c(=O)[nH]c(N(C)C)nc21 (single isomer, unassigned) [Example 173, (S)- or (R)-6-(Dimethylamino)-3-(fluoromethyl)-1-(1-(4-(trifluoromethyl)phenyl)propyl)-1H-pyrazolo[3,4-d]pyrimidin-4(5H)-one]
0.058	0.047	CC(C)c1ccc(C(C(C)C)n2nc(CF)c3c(=O)[nH]c(N(C)C)nc32)cc1 (single isomer, unassigned) [Example 177, (S)- or (R)-6-(Dimethylamino)-3-(fluoromethyl)-1-(1-(4-isopropylphenyl)-2-methylpropyl)-1H-pyrazolo[3,4-d]pyrimidin-4(5H)-one]
0.14	0.13	CC(c1ccc(C(F)(F)F)cc1F)n1nc(CF)c2c(=O)[nH]c(N(C)C)nc21 (single isomer, unassigned) [Example 186, (R)- or (S)-6-(Dimethylamino)-1-(1-(2-fluoro-4-(trifluoromethyl)phenyl)ethyl)-3-(fluoromethyl)-1H-pyrazolo[3,4-d]pyrimidin-4(5H)-one]
0.42	0.38	CC(c1ccc(C(F)F)cc1)n1nc(CF)c2c(=O)[nH]c(N(C)C)nc21 (single isomer, unassigned) [Example 191, (S)- or (R)-1-(1-(4-(Difluoromethyl)phenyl)ethyl)-6-(dimethylamino)-3-(fluoromethyl)-1H-pyrazolo[3,4-d]pyrimidin-4(5H)-one]
0.42	0.41	CN(C)c1nc2c(c(CF)nn2C(c2ccc(CC(F)(F)F)cc2)C2CC2)c(=O)[nH]1 (single isomer, unassigned) [Example 192, (R)- or (S)-1-(Cyclopropyl(4-(2,2,2-trifluoroethyl)phenyl)methyl)-6-(dimethylamino)-3-(fluoromethyl)-1H-pyrazolo[3,4-d]pyrimidin-4(5H)-one]
0.41	0.39	CN(C)c1nc2c(c(CF)nn2C(c2ccc(CC(F)(F)F)cc2)C2CC2)c(=O)[nH]1 (single isomer, unassigned) [Example 193, (S)- or (R)-1-(Cyclopropyl(4-(2,2.2-trifluoroethyl)phenyl)methyl)-6-(dimethylamino)-3-(fluoromethyl)-1H-pyrazolo[3,4-d]pyrimidin-4(5H)-one]
0.07	0.041	CC(C)C(c1ccc(C(F)(F)F)cc1F)n1nc(CF)c2c(=O)[nH]c(N(C)C)nc21 (single isomer, unassigned) [Example 200, (R)- or (S)-6-(Dimethylamino)-1-(1-(2-fluoro-4-(trifluoromethyl)phenyl)-2-methylpropyl)-3-(fluoromethyl)-1H-pyrazolo[3,4-d]pyrimidin-4(5H)-one]
0.058	0.042	CN(C)c1nc2c(c(CF)nn2C(c2ccc(C(F)(F)F)cc2F)C2CC2)c(=O)[nH]1 (single isomer, unassigned) [Example 202, (R)- or (S)-1-(Cyclopropyl(2-fluoro-4-(trifluoromethyl)phenyl)methyl)-6-(dimethylamino)-3-(fluoromethyl)-1H-pyrazolo[3,4-d]pyrimidin-4(5H)-one]
0.74	0.61	CN(C)c1nc2c(c(CF)nn2C(c2ccc(C(F)(F)F)cc2F)C2CC2)c(=O)[nH]1 (single isomer, unassigned) [Example 203, (S)- or (R)-1-(Cyclopropyl(2-fluoro-4-(trifluoromethyl)phenyl)methyl)-6-(dimethylamino)-3-(fluoromethyl)-1H-pyrazolo[3,4-d]pyrimidin-4(5H)-one]
0.072	0.038	CCC(c1ccc(C(C)(F)F)cc1)n1nc(CF)c2c(=O)[nH]c(N(C)C)nc21 (single isomer, unassigned) [Example 205, (S)- or (R)-1-(1-(4-(1,1-Difluoroethyl)phenyl)propyl)-6-(dimethylamino)-3-(fluoromethyl)-1H-pyrazolo[3,4-d]pyrimidin-4(5H)-one]
0.14	0.077	CC(c1ccc(C(C)(F)F)cc1F)n1nc(CF)c2c(=O)[nH]c(N(C)C)nc21 (single isomer, unassigned) [Example 209, (S)- or (R)-1-(1-(4-(1,1-Difluoroethyl)-2-fluorophenyl)ethyl)-6-(dimethylamino)-3-(fluoromethyl)-1H-pyrazolo[3,4-d]pyrimidin-4(5H)-one]
